Source: patent publication US20220323406A1, “METHODS AND COMPOSITIONS FOR DIFFERENTIATING STEM CELLS” (Massachusetts Institute of Technology, priority 2019, published 2022)

Columns and labels:
[1] = system: ENR+CD organoids; assay: Primary screen: ATP (CellTiter-Glo 3D, CTG) cell number/viability, 2.5-D 384-well ENR+CD organoids; conditions: primary screen, FC relative to plate median;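 also: compounds given at plating and again on day 3 over a 6-day differentiation from ENR+CV stem-cell-enriched precursors, ATP measured on day 6, plate median as control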
[2] = system: ENR+CD organoids (ISC to Paneth cell differentiation); assay: Primary screen: basal (non-stimulated) lysozyme secretion LYZ.NS, 2.5-D 384-well ENR+CD organoid differentiation; assay type: cell-based, mouse; conditions: for Dose.FC.LYZ.NS / Z.LYZ.NS: primary screen; for Dose.FC.LYZ.NS: FC relative to plate median; for Z.LYZ.NS: standard z score
Excerpt: (§1) High-throughput screening.

[3] = system: ENR+CD organoids (ISC to Paneth cell differentiation); assay: Secondary (validation) screen: LYZ.NS basal lysozyme secretion, 2.5-D 384-well ENR+CD organoids; assay type: cell-based, mouse; conditions: 6-day ENR+CD, vs ENR+CD+DMSO
[4] = system: ENR+CD organoids (ISC to Paneth cell differentiation); assay: Primary screen: CCh-stimulated lysozyme secretion LYZ.S, 2.5-D 384-well ENR+CD organoid differentiation; assay type: cell-based, mouse; conditions: primary screen, FC relative to plate median
Excerpt: as §1

[5] = system: ENR+CD organoids; assay: Secondary (validation) screen: ATP (CTG) assay, 2.5-D 384-well ENR+CD organoids; assay type: cell-based, mouse; conditions: 6-day ENR+CD, vs ENR+CD+DMSO
[6] = system: ENR+CD organoids (ISC to Paneth cell differentiation); assay: Secondary (validation) screen: LYZ.S CCh-stimulated lysozyme secretion, 2.5-D 384-well ENR+CD organoids; assay type: cell-based, mouse; conditions: 6-day ENR+CD, vs ENR+CD+DMSO

Structure (SMILES) | Dose.FC.CTG ([1]; dose 0.08 uM) [log2 fold change] | Dose.FC.CTG ([1]; dose 0.40 uM) [log2 fold change] | Dose.FC.CTG ([1]; dose 2.00 uM) [log2 fold change] | Dose.FC.CTG ([1]; dose 10.00 uM) [log2 fold change] | Dose.FC.LYZ.NS ([2]; dose 0.08 uM) [log2 fold change] | Z.LYZ.NS ([2]; dose 0.08 uM) | Dose.FC.LYZ.NS ([2]; dose 0.40 uM) [log2 fold change] | Z.LYZ.NS ([2]; dose 0.40 uM) | Dose.FC.LYZ.NS ([2]; dose 2.00 uM) [log2 fold change] | Z.LYZ.NS ([2]; dose 2.00 uM) | Dose.FC.LYZ.NS ([2]; dose 10.00 uM) [log2 fold change] | Z.LYZ.NS ([2]; dose 10.00 uM) | Dose.FC.LYZ.S ([4]; dose 0.08 uM) [log2 fold change] | Dose.FC.LYZ.S ([4]; dose 0.40 uM) [log2 fold change] | Dose.FC.LYZ.S ([4]; dose 2.00 uM) [log2 fold change] | Dose.FC.LYZ.S ([4]; dose 10.00 uM) [log2 fold change] | also measured
COc1ccc(C2CNC(=O)C2)cc1OC1CCCC1 (stereo not drawn) [Rolipram, reference compound] | 0.356 | 0.155 | 0.396 | 0.299 | 0.406 | 3.532 | 0.063 | 0.545 | 0.169 | 1.470 | 0.112 | 0.975 | 0.239 | 0.156 | 0.337 | 0.223 | primary screen hit call (SSMD and z-scored FC cutoffs in both LYZ assays) ([2]; LYZ.NS and LYZ.S, 0.08-10 uM, 6 days ENR+CD): sole hit in their respective pathway; Dose.FC.LYZ.NS ([3]; 0.50 uM): −0.043 log2 fold change; Dose.FC.LYZ.NS ([3]; 1.00 uM): 0.152 log2 fold change; Dose.FC.LYZ.NS ([3]; 2.00 uM): 0.099 log2 fold change; Dose.FC.LYZ.NS ([3]; 4.00 uM): −0.051 log2 fold change; Dose.FC.CTG ([5]; 0.50 uM): 0.053 log2 fold change; Dose.FC.CTG ([5]; 1.00 uM): 0.133 log2 fold change; Dose.FC.CTG ([5]; 2.00 uM): 0.202 log2 fold change; Dose.FC.CTG ([5]; 4.00 uM): 0.065 log2 fold change; Dose.FC.LYZ.S ([6]; 0.50 uM): −0.082 log2 fold change; Dose.FC.LYZ.S ([6]; 1.00 uM): 0.104 log2 fold change; Dose.FC.LYZ.S ([6]; 2.00 uM): 0.030 log2 fold change; Dose.FC.LYZ.S ([6]; 4.00 uM): −0.071 log2 fold change
N#CC[C@H](C1CCCC1)n1cc(-c2ncnc3[nH]ccc23)cn1 [Ruxolitinib (INCB018424), Ruxolitinib, reference compound] | 0.458 | 0.363 | 0.445 | 0.477 | 0.122 | 1.066 | 0.070 | 0.611 | 0.110 | 0.954 | 0.295 | 2.569 | 0.150 | 0.067 | 0.105 | 0.317 | Dose.FC.LYZ.NS ([3]; 2.50 uM): −0.157 log2 fold change; Dose.FC.LYZ.NS ([3]; 5.00 uM): −0.138 log2 fold change; Dose.FC.LYZ.NS ([3]; 10.00 uM): −0.084 log2 fold change; Dose.FC.LYZ.NS ([3]; 20.00 uM): 0.065 log2 fold change; Dose.FC.CTG ([5]; 2.50 uM): −0.014 log2 fold change; Dose.FC.CTG ([5]; 5.00 uM): −0.224 log2 fold change; Dose.FC.CTG ([5]; 10.00 uM): −0.153 log2 fold change; Dose.FC.CTG ([5]; 20.00 uM): 0.166 log2 fold change; Dose.FC.LYZ.S ([6]; 2.50 uM): −0.182 log2 fold change; Dose.FC.LYZ.S ([6]; 5.00 uM): −0.217 log2 fold change; Dose.FC.LYZ.S ([6]; 10.00 uM): −0.168 log2 fold change; Dose.FC.LYZ.S ([6]; 20.00 uM): 0.027 log2 fold change
